The values that follow come from ChEMBL document CHEMBL4261613, “Discovery of a potent orally bioavailable retinoic acid receptor-related orphan receptor-gamma-t (RORγt) inhibitor, S18-000003” (Bioorg Med Chem Lett, 2018).

Data set [1] concerns Mus musculus. Nature of the data set: In-vivo transrepression of RORgammat in mouse assessed as inhibition of IL23-stimulated IL17 production at 100 mg/kg, po administered 30 mins before and 6 hrs after IL-23 injection in skin intradermally measured after 24 hrs by ELISA relative to control. The data set is classed as functional. (ELISA stands for enzyme-linked immunosorbent assay.)

Data set [2] concerns Mus musculus. The data set is described as follows: In-vivo transrepression of RORgammat in po dosed mouse assessed as inhibition of IL23-stimulated IL17 production administered 30 mins before and 6 hrs after IL-23 injection in skin intradermally measured after 24 hrs by ELISA. The data set is classed as functional, organism-based.
Data set [3] deals with T1, Nuclear receptor ROR-gamma (Homo sapiens, UniProt P51449).
T1 sequence (P51449 whole entry): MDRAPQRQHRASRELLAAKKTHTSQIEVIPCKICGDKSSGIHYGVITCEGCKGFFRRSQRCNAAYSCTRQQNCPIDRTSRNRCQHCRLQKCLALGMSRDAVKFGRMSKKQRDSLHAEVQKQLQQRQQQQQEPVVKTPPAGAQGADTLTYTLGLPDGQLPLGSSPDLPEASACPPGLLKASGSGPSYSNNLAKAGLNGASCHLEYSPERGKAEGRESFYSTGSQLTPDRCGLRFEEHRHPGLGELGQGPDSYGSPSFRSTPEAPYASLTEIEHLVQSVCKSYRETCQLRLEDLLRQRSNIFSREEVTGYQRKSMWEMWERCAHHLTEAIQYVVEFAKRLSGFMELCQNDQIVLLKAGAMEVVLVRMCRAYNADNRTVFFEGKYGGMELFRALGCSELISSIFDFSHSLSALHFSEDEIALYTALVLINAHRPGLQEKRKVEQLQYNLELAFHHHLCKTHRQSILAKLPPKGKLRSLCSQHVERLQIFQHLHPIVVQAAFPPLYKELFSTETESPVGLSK
Nature of the data set: Displacement of [3H]-Digoxin from recombinant human GST-fused RORgammat LBD after 1 to 4 hrs by scintillation counting method.

A short description of data set [4]: AUC in rat at 1 mg/kg, po. The data set is classed as ADME, organism-based. Particulars: in vivo.
Data set [5] can be described thus: Cmax in mouse at 100 mg/kg, po. The data set is classed as ADME, organism-based. Set-up: dose 100 mg/kg, route oral. Particulars: in vivo.
A short description of data set [6]: Cmax in mouse at 30 mg/kg, po. Particulars: in vivo. Set-up: dose 30 mg/kg, route oral. The data set is classed as ADME, organism-based.
A short description of data set [7]: Tmax in mouse at 100 mg/kg, po. The data set is classed as ADME, organism-based. Particulars: in vivo.
In data set [8] the target is T2, Nuclear receptor ROR-gamma (Mus musculus, UniProt P51450).
T2 sequence (P51450 whole entry): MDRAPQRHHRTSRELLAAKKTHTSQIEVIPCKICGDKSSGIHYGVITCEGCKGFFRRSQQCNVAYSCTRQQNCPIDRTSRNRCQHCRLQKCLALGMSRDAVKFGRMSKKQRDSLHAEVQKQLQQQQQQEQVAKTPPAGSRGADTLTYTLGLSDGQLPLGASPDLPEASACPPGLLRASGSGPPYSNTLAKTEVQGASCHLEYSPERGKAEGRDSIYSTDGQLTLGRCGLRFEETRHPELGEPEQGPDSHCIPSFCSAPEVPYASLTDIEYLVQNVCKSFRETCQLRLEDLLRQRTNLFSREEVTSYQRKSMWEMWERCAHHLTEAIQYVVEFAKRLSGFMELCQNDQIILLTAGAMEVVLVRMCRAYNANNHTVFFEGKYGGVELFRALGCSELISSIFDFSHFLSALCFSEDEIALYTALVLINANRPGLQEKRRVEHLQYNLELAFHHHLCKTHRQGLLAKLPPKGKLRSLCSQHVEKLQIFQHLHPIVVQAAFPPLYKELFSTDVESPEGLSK
Nature of the data set: (§1) Transrepression of recombinant mouse GAL4-DBD fused RORgammat LBD expressed in HEK293 cells after 20 hrs by luciferase reporter gene assay. The data set is classed as cell-based. (In general: In a reporter assay the amount or activity of a reporter protein is the signal.)

Data set [9] has as its target T3, Nuclear receptor ROR-gamma (Mus musculus) (UniProt P51450).
T3 sequence (whole entry): T2 sequence (P51450 whole entry)
The description is as §1. The data set is classed as cell-based.

Data set [10] in a line: AUC in mouse at 30 mg/kg, po. The data set is classed as ADME, organism-based. The settings on record: in vivo.
The nature of data set [11]: Total clearance in rat at 0.5 mg/kg, iv. The data set is classed as ADME, organism-based. The settings on record: in vivo.
Data set [12] can be described thus: AUC in mouse at 100 mg/kg, po. The data set is classed as ADME, organism-based. Particulars: in vivo.
Data set [13] is described as follows: Tmax in mouse at 30 mg/kg, po. The settings on record: in vivo. The data set is classed as ADME, organism-based.
For data set [14], the target named is T2, Nuclear receptor ROR-gamma. Nature of the data set: Transrepression of RORgammat in anti-CD3/CD28 stimulated C57BL/6 mouse CD4-positive T cells assessed as suppression of T cell differentiation to Th17 cells by measuring reduction in IL-17A level after 4 days by ELISA.
Data set [15] is described as follows: Half life in rat at 0.5 mg/kg, iv. The data set is classed as ADME, organism-based. Particulars: in vivo.
Data set [16] can be described thus: Cmax in rat at 1 mg/kg, po. The data set is classed as ADME, organism-based. Set-up: dose 1 mg/kg, route oral. Particulars: in vivo.
Data set [17] addresses T4, Oxysterols receptor LXR-alpha (Homo sapiens, UniProt Q13133).
T4 sequence (Q13133 whole entry): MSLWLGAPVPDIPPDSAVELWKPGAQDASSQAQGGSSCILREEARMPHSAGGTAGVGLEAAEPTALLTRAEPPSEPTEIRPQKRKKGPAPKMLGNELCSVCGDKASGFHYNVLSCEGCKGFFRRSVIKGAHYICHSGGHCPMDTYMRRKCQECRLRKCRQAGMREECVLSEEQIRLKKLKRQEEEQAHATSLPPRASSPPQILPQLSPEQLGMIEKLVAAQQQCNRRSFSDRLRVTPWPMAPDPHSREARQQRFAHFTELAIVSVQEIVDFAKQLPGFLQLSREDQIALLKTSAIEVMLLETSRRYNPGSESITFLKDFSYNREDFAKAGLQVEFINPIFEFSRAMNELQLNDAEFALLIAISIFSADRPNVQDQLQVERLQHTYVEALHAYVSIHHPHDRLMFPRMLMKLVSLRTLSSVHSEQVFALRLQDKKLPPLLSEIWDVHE
Nature of the data set: Transrepression of recombinant human GAL4-DBD fused LXRalpha LBD expressed in HEK293 cells after 20 hrs by luciferase reporter gene assay. The data set is classed as cell-based.

Data set [18] deals with Mus musculus. The data set is described as follows: In-vivo transrepression of RORgammat in mouse assessed as inhibition of IL23-stimulated IL17 production at 30 mg/kg, po administered 30 mins before and 6 hrs after IL-23 injection in skin intradermally measured after 24 hrs by ELISA relative to control. The data set is classed as functional.

In general, inhibition in vivo refers to how much of the control response was suppressed. By IC50 is commonly meant the concentration that gives 50% inhibition. Broadly, the AUC is concentration integrated over time. High values mean more exposure, low ones less exposure. In general, Cmax refers to the maximum level reached in the sampled fluid or tissue. One may read the Tmax as the time at which the peak concentration occurs. The term clearance denotes the rate of elimination divided by the concentration. Higher therefore signals a high capacity for elimination. A word on the half-life: it is the time needed for the level to fall by half in the phase considered. A lower half-life goes with fast loss. The EC50 is the concentration that produces a half-maximal response. Regarding `CCS(=O)(=O)c1ccc(CC(=O)Nc2ccc(C(C)(C)C(=O)Nc3ccc(F)cc3F)c(F)c2)cc1`, in data set [1], the inhibition in vivo at 100 mg/kg was 63%. Besides, the inhibition result in [2] was “Dose-dependent effect”. For the same compound, the IC50 was under 30 nM in data set [3], 340 nM in [8] and 200 nM in data set [14]. Further, the area under the curve (AUC) in [4] amounted to 2110 ng·h/mL; in data set [10] it was 43500 ng·h/mL; in [12] it was 96300 ng·h/mL. The Cmax is 17800 ng/mL in [5], 8350 ng/mL in data set [6] and 185 ng/mL in data set [16]. Further, the figures for the Tmax in data set [7] and in [13] were 0.8 h and 1.5 h, respectively. In addition, the Efficacy in data set [9] was determined as 85%. The clearance in data set [11] stood at 4.33 mL/min/kg. In data set [15], the half-life is 3.2 h. Further, in [17], the EC50 was over 30000 nM. For the same compound, the inhibition in vivo at 30 mg/kg in data set [18] amounted to 41%.

With `CCS(=O)(=O)c1ccc(CC(=O)Nc2ccc(C(C)(C)C(=O)Nc3ccc(F)cc3)c(F)c2)cc1`, the half-inhibitory concentration (IC50) is under 30 nM in [3], 250 nM in data set [8] and 420 nM in [14]. For the same compound, in [4], the AUC stood at 786 ng·h/mL. Further, in data set [9], the Efficacy was 85%. This compound also showed a clearance in data set [11] of 8.45 mL/min/kg. Moreover, the half-life in data set [15] is 2.5 h. In data set [16], this compound returned a Cmax of 85.3 ng/mL. The concentration for a half-maximal effect (EC50) in data set [17] was over 30000 nM.

In the case of `CCS(=O)(=O)c1ccc(CC(=O)Nc2ccc(C(C)(C)C(=O)Nc3cc(C#N)ccn3)c(F)c2)cc1`, the inhibition in vivo at 100 mg/kg in data set [1] is 38%. The inhibition result in data set [2] was “Dose-dependent effect”. The IC50 in [3] is under 30 nM; in [8], 74 nM; in [14], 68 nM. Moreover, the exposure (AUC) was 218 ng·h/mL in [4], 4740 ng·h/mL in data set [10] and 23000 ng·h/mL in data set [12]. For the same compound, the maximum concentration (Cmax) was 8450 ng/mL in [5], 2700 ng/mL in [6] and 33.3 ng/mL in [16]. Besides, the time to peak (Tmax) in data set [7] and in data set [13] was 0.5 h each time. The Efficacy in data set [9] came to 88%. Besides, the clearance in data set [11] worked out at 15 mL/min/kg. The compound also gave a half-life in data set [15] of 2.9 h. The half-maximal effective concentration (EC50) in [17] is over 30000 nM. Also, the inhibition in vivo at 30 mg/kg in data set [18] was 22%.
